The values that follow come from ChEMBL document CHEMBL1641428, “Inhibition of the β-carbonic anhydrase from Streptococcus pneumoniae by inorganic anions and small molecules: Toward innovative drug design of antiinfectives?” (Bioorg Med Chem, 2011).

pKi: −log10 of the molar value.

Test [1] has as its target Carbonic anhydrase 1 (Homo sapiens, UniProt P00915). Description: Inhibition of human carbonic anhydrase 1 after 15 mins by stopped flow CO2 hydration assay.
For test [2], the target named is Carbonic anhydrase 2 (Homo sapiens, UniProt P00918). Description: Inhibition of human carbonic anhydrase 2 after 15 mins by stopped flow CO2 hydration assay.

Carbonic anhydrase 1, sequence (P00915 whole entry): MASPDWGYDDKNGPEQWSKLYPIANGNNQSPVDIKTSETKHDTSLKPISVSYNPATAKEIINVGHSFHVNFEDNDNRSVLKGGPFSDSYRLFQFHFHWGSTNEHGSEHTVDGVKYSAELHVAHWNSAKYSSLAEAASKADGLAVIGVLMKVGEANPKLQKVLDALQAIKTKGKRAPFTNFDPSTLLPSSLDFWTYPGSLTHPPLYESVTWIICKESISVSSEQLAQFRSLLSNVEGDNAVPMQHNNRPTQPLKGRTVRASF

For orientation: pKi means the Ki on a negative log10 scale, so that one unit is a factor of ten. `O=S(=O)(O)ONOS(=O)(=O)O` [SODIUM IMINODISULFATE]: the negative-log Ki (pKi) in test [1] is 6.51; in test [2], 6.12.
